What was measured:
[1] = test system: HeLa human cervical cancer cell line; experiment: Proliferation assay (crystal violet staining); assay type: cell-based; details: 96 h, 4 days incubation, median value, read-out: Biological Assay 2: Proliferation assay (HeLa cell line) median IC50
Description: Cultivated tumor cells (cells were ordered from ATCC) were plated at a density of 3000 cells/well in a 96-well multititer plate in 200 μL of growth medium supplemented 10% fetal calf serum. After 24 hours, the cells of one plate (zero-point plate) were stained with crystal violet (see below), while the medium of the other plates was replaced by fresh culture medium (200 μL), to which the test substances were added in various concentrations (0 μM, as well as in the range of 0.001-10 μM; the final concentration of the solvent dimethyl sulfoxide was 0.5%). The cells were incubated for 4 days in the presence of test substances. Cell proliferation was determined by staining the cells with crystal violet: the cells were fixed by adding 20 μL/measuring point of an 11% glutaric aldehyde solution for 15 minutes at room temperature. After three washing cycles of the fixed cells with water, the plates were dried at room temperature. The cells were stained by adding 100 μL/measuring point of a 0.1% crystal violet solution (pH 3.0). […] Absorbtion was determined by photometry at a wavelength of 595 nm. The change of cell number, in percent, was calculated by normalization of the measured values to the absorbtion values of the zero-point plate (=0%) and the absorbtion of the untreated (0 μm) cells (=100%). The IC50 values were determined by means of a 4 parameter fit.

[2] = molecular target: T1, catalytic domain of human Bub1 (amino acids 704-1085) (Homo sapiens, UniProt O43683); experiment: Bub1 kinase assay (TR-FRET); assay type: biochemical; details: 10 μM ATP, 1 μM peptide substrate, median value, read-out: Biological Assay 1: Bub1 kinase assay median IC50
T1 construct: catalytic domain of human Bub1 (amino acids 704-1085); His6 (N); made in house; host or cells: Hi5 insect cells
Description: Bub1-inhibitory activities of compounds described in the present invention were quantified using a time-resolved fluorescence energy transfer (TR-FRET) kinase assay which measures phosphorylation of the synthetic peptide Biotin-Ahx-[…] (C-terminus in amide form), purchased from e.g. Biosyntan (Berlin, Germany) by the (recombinant) catalytic domain of human Bub1 (amino acids 704-1085), expressed in Hi5 insect cells with an N-terminal His6-tag and purified by affinity-(Ni-NTA) and size exclusion chromatography.
In a typical assay 11 different concentrations of each compound (0.1 nM, 0.33 nM, 1.1 nM, 3.8 nM, 13 nM, 44 nM, 0.15 μM, 0.51 μM, 1.7 μM, 5.9 μM and 20 μM) were tested in duplicate within the same microtiter plate. To this end, 100-fold concentrated compound solutions (in DMSO) were previously prepared by serial dilution (1:3.4) of 2 mM stocks in a clear low volume 384-well source microtiter plate (Greiner Bio-One, Frickenhausen, Germany), from which 50 nL of compounds were transferred into a black low volume test microtiter plate from the same supplier. Subsequently, 2 μL of Bub1 (the final concentration of Bub1 was adjusted depending on the activity of the enzyme lot in order to be within the linear dynamic range of the assay: typically ˜200 ng/mL were used) in aqueous assay buffer [50 mM Tris/HCl pH 7.5, 10 mM magnesium chloride (MgCl2), 200 mM potassium chloride (KCl), 1.0 mM dithiothreitol (DTT), 0.1 mM sodium ortho-vanadate, 1% (v/v) glycerol, 0.01% (w/v) bovine serum albumine (BSA), 0.005% (v/v) Trition X-100 (Sigma), 1× Complete EDTA-free protease inhibitor mixture (Roche)] were added to the compounds in the test plate and the mixture was incubated for 15 min at 22° C. to allow pre-equilibration of the putative enzyme-inhibitor complexes before the start of the kinase reaction, which was initiated by the addition of 3 μL 1.67-fold concentrated solution (in assay buffer) of adenosine-tri-phosphate (ATP, 10 μM final concentration) and peptide substrate (1 μM final concentration). […] Subsequently, the amount of product was evaluated by measurement of the resonance energy transfer from the Eu-chelate-antibody complex recognizing the Phosphoserine residue to the streptavidin-XL665 bound to the biotin moiety of the peptide. To this end, the fluorescence emissions at 620 nm and 665 nm after excitation at 330-350 nm were measured in a TR-FRET plate reader, e.g. a Rubystar or Pherastar (both from BMG Labtechnologies, Offenburg, Germany) or a Viewlux (Perkin-Elmer) and the ratio of the emissions (665 nm/622 nm) was taken as indicator for the amount of phosphorylated substrate. […] IC50 values were calculated by fitting the normalized inhibition data to a 4-parameter logistic equation (Minimum, Maximum, IC50, Hill; Y=Max+(Min−Max)/(1+(X/IC50)Hill)).

T1 sequence (O43683 704-1085): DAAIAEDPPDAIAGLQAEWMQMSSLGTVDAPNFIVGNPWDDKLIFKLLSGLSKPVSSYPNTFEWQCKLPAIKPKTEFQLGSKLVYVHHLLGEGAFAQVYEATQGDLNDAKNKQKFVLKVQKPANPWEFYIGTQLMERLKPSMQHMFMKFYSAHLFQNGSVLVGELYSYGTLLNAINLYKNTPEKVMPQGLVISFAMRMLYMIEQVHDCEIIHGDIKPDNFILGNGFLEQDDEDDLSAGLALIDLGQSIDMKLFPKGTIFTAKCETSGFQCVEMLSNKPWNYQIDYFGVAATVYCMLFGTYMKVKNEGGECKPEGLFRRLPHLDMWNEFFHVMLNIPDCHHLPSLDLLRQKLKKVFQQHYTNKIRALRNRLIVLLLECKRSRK

IC50 [1]	IC50 [2]	SMILES
8200 nM	8.4 nM	CCOc1cc(F)c(Cn2nc(-c3ncc(OCCCS(C)(=N)=O)c(Nc4ccncc4)n3)c(C)c2C2CC2)c(F)c1 (racemic) [Example 2-2-1, 2-[5-cyclopropyl-1-(4-ethoxy-2,6-difluorobenzyl)-4-methyl-1H-pyrazol-3-yl]-5-[3-(S-methylsulfonimidoyl)propoxy]-N-(pyridin-4-yl)pyrimidin-4-amine]
	5.7 nM	CCOc1cc(F)c(Cn2nc(-c3ncc(OCCCS(C)(=N)=O)c(Nc4ccncc4)n3)c(C)c2C2CC2)c(F)c1 (single isomer, unassigned; (+)) [Example 2-2-3, (+)-2-[5-cyclopropyl-1-(4-ethoxy-2,6-difluorobenzyl)-4-methyl-1H-pyrazol-3-yl]-5-[3-(S-methylsulfonimidoyl)propoxy]-N-(pyridin-4-yl)pyrimidin-4-amine]
	9.5 nM	CCOc1cc(F)c(Cn2nc(-c3ncc(OCCCS(C)(=N)=O)c(Nc4ccncc4)n3)c(C)c2C2CC2)c(F)c1 (single isomer, unassigned; (-)) [Example 2-2-2, (−)-2-[5-cyclopropyl-1-(4-ethoxy-2,6-difluorobenzyl)-4-methyl-1H-pyrazol-3-yl]-5-[3-(S-methylsulfonimidoyl)propoxy]-N-(pyridin-4-yl)pyrimidin-4-amine]
	11 nM	CCOc1cc(F)c(Cn2nc(-c3ncc(OCCCS(C)(=O)=NC(=O)C(F)(F)F)c(Nc4ccncc4)n3)c(C)c2C2CC2)c(F)c1 (centres unmarked) [Example 2-1-1, N-{[3-({2-[5-cyclopropyl-1-(4-ethoxy-2,6-difluorobenzyl)-4-methyl-1H-pyrazol-3-yl]-4-(pyridin-4-ylamino)pyrimidin-5-yl}oxy)propyl](methyl)oxido-λ^6-sulfanylidene}-2,2,2-trifluoroacetamide]

— patent US20160151370A1, “Substituted Benzylpyrazoles” (BAYER PHARMA AKTIENGESELLSCHAFT, priority 2013, published 2016)
